The target in assay [1] is Cyclin-dependent kinase 19 (Homo sapiens) (UniProt Q9BWU1). The assay is described as follows: Binding affinity to wild-type human partial length CDK11 (M1 to N360 residues) expressed in bacterial expression system assessed as residual binding level at 1 uM by Kinomescan method relative to control.
Assay [2] concerns Hepatocyte growth factor receptor (Homo sapiens), P08581 [Y1235D]. The assay is described as follows: Binding affinity to human partial length MET Y1235D mutant (D1010 to S1367 residues) expressed in bacterial expression system assessed as residual binding level at 1 uM by Kinomescan method relative to control.
Assay [3] has as its target SNF-related serine/threonine-protein kinase (Homo sapiens) (UniProt Q9NRH2). The assay is described as follows: Binding affinity to wild-type human partial length SNRK (M1 to E339 residues) expressed in mammalian expression system assessed as residual binding level at 1 uM by Kinomescan method relative to control.
Assay [4] addresses Serine/threonine-protein kinase Nek11 (Homo sapiens) (UniProt Q8NG66). The assay can be described thus: Binding affinity to wild-type human partial length NEK11 (M1 to E313 residues) expressed in mammalian expression system assessed as residual binding level at 1 uM by Kinomescan method relative to control.
In assay [5] the test system is Tyrosine-protein kinase ABL1 (Homo sapiens), P00519 [F317L]. The assay is described as follows: Binding affinity to human non-phosphorylated ABL1 F317L mutant (S229 to K512 residues) expressed in mammalian expression system assessed as residual binding level at 1 uM by Kinomescan method relative to control.
Assay [6] addresses Casein kinase II subunit alpha (Homo sapiens) (UniProt P68400). The assay is described as follows: Binding affinity to wild-type human full length CSNK2A1 (M1 to Q391 residues) expressed in mammalian expression system assessed as residual binding level at 1 uM by Kinomescan method relative to control.
Assay [7] deals with Mitogen-activated protein kinase 14 (Homo sapiens) (UniProt Q16539). The assay can be described thus: Binding affinity to wild-type human full length p38-alpha (M1 to S360 residues) expressed in bacterial expression system assessed as residual binding level at 1 uM by Kinomescan method relative to control.
Assay [8] concerns the target Mitogen-activated protein kinase kinase kinase 2 (Homo sapiens) (UniProt Q9Y2U5). The assay is described as follows: Binding affinity to wild-type human partial length MAP3K2 (S315 to H619 residues) expressed in mammalian expression system assessed as residual binding level at 1 uM by Kinomescan method relative to control.
In assay [9] the target is Proto-oncogene tyrosine-protein kinase ROS (Homo sapiens) (UniProt P08922). The assay is described as follows: Binding affinity to wild-type human partial length ROS1 (A1921 to N2240 residues) expressed in bacterial expression system assessed as residual binding level at 1 uM by Kinomescan method relative to control.
For assay [10], the target named is Ribosomal protein S6 kinase alpha-4 (Homo sapiens) (UniProt O75676). The assay can be described thus: Binding affinity to wild-type human partial length C-terminal RPS6KA4 kinase domain 2 (M375 to T705 residues) expressed in mammalian expression system assessed as residual binding level at 1 uM by Kinomescan method relative to control.
In assay [11] the target is Tyrosine-protein kinase HCK (Homo sapiens) (UniProt P08631). The assay can be described thus: Binding affinity to wild-type human full length HCK (M22 to P526 residues) expressed in bacterial expression system assessed as residual binding level at 1 uM by Kinomescan method relative to control.
The target in assay [12] is Testis-specific serine/threonine-protein kinase 1 (Homo sapiens) (UniProt Q9BXA7). The assay is described as follows: Binding affinity to wild-type human full length TSSK1B (M1 to Q367 residues) expressed in bacterial expression system assessed as residual binding level at 1 uM by Kinomescan method relative to control.
Assay [13] addresses Leucine-rich repeat serine/threonine-protein kinase 2 (Homo sapiens) (UniProt Q5S007). The assay is described as follows: Binding affinity to wild-type human partial length LRRK2 (H970 to E2527 residues) expressed in mammalian expression system assessed as residual binding level at 1 uM by Kinomescan method relative to control.
Assay [14] deals with Proto-oncogene tyrosine-protein kinase receptor Ret (Homo sapiens), P07949 [V804L]. The assay is described as follows: Binding affinity to human partial length RET V804L mutant (E713 to D1014 residues) expressed in bacterial expression system assessed as residual binding level at 1 uM by Kinomescan method relative to control.
Assay [15] deals with MAP kinase-activated protein kinase 5 (Homo sapiens) (UniProt Q8IW41). The assay can be described thus: Binding affinity to wild-type human partial length MAPKAPK5 (M1 to D322 residues) expressed in mammalian expression system assessed as residual binding level at 1 uM by Kinomescan method relative to control.
In assay [16] the target is 5'-AMP-activated protein kinase catalytic subunit alpha-2 (Homo sapiens) (UniProt P54646). The assay can be described thus: Binding affinity to wild-type human partial length AMPK alpha2 (M1 to E306 residues) expressed in bacterial expression system assessed as residual binding level at 1 uM by Kinomescan method relative to control.
Assay [17] relates to Epidermal growth factor receptor (Homo sapiens), P00533 [G719S]. The assay can be described thus: Binding affinity to human partial length EGFR G719S mutant (R669 to V1011 residues) expressed in bacterial expression system assessed as residual binding level at 1 uM by Kinomescan method relative to control.
The target of assay [18] is Platelet-derived growth factor receptor alpha (Homo sapiens) (UniProt P16234). The assay can be described thus: Binding affinity to wild-type human partial length PDGFRA (V575 to D1002 residues) expressed in mammalian expression system assessed as residual binding level at 1 uM by Kinomescan method relative to control.
Assay [19] addresses Dual specificity mitogen-activated protein kinase kinase 6 (Homo sapiens) (UniProt P52564). The assay is described as follows: Binding affinity to wild-type human partial length MEK6 (K36 to D334 residues) expressed in bacterial expression system assessed as residual binding level at 1 uM by Kinomescan method relative to control.
For assay [20], the system named is Phosphatidylinositol 4,5-bisphosphate 3-kinase catalytic subunit alpha isoform (Homo sapiens), P42336 [E542K]. The assay can be described thus: Binding affinity to human partial length PIK3CA E542K mutant (R108 to N1068 residues) expressed in mammalian expression system assessed as residual binding level at 1 uM by Kinomescan method relative to control.
In assay [21] the target is Serine/threonine-protein kinase PAK 1 (Homo sapiens) (UniProt Q13153). The assay can be described thus: Binding affinity to wild-type human partial length PAK1 (S149 to H545 residues) expressed in bacterial expression system assessed as residual binding level at 1 uM by Kinomescan method relative to control.
Assay [22] has as its target Ephrin type-A receptor 8 (Homo sapiens) (UniProt P29322). The assay is described as follows: Binding affinity to wild-type human partial length EPHA8 (Q608 to C920 residues) expressed in bacterial expression system assessed as residual binding level at 1 uM by Kinomescan method relative to control.
Assay [23] has as its target Cyclin-dependent kinase 4/cyclin D1 (Homo sapiens) (UniProt P11802+P24385). The assay can be described thus: Binding affinity to wild-type human full length CDK4/cyclinD1 (M1 to E303 residues) expressed in mammalian expression system assessed as residual binding level at 1 uM by Kinomescan method relative to control.
The target in assay [24] is Fibroblast growth factor receptor 1 (Homo sapiens) (UniProt P11362). The assay is described as follows: Binding affinity to wild-type human partial length FGFR1 (P357 to V669 residues) expressed in bacterial expression system assessed as residual binding level at 1 uM by Kinomescan method relative to control.

Chain of Tyrosine-protein kinase HCK (Homo sapiens) (P08631 2-526 limits assumed): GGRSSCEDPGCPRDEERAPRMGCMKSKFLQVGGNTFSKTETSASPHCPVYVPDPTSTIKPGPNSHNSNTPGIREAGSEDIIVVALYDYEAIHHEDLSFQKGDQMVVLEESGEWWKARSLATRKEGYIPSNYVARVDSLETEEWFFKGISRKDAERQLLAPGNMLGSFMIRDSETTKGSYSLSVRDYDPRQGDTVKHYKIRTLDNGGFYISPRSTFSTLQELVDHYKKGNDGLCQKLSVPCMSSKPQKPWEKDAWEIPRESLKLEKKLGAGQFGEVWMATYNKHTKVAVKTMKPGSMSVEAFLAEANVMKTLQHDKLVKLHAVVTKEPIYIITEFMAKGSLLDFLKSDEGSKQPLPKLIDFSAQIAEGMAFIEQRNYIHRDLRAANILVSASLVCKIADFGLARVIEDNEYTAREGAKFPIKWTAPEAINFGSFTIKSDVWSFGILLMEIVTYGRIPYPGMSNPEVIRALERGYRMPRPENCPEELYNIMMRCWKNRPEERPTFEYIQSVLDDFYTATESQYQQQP
Chain of SNF-related serine/threonine-protein kinase (Homo sapiens) (Q9NRH2 whole entry, the tested form may be a part): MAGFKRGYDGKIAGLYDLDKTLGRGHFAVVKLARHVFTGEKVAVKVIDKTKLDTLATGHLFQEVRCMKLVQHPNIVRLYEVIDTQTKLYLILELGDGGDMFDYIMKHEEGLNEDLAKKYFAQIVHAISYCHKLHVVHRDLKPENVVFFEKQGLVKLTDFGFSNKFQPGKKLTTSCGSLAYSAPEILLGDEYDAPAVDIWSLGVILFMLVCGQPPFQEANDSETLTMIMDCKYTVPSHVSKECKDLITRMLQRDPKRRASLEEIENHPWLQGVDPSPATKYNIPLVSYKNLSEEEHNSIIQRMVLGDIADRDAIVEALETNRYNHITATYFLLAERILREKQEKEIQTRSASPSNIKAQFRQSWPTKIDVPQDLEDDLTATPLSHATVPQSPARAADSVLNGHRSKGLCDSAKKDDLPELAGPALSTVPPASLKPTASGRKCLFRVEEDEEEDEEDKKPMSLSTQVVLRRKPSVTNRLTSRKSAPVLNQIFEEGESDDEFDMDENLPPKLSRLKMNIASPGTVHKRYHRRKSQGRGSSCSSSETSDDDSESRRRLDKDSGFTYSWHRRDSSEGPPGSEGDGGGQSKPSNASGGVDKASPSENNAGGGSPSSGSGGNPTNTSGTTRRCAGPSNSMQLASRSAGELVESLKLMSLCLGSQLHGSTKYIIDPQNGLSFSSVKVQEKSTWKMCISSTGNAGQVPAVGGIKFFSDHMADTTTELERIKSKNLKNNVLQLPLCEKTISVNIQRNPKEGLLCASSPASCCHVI
Chain of Mitogen-activated protein kinase 14 (Homo sapiens) (Q16539 whole entry, the tested form may be a part): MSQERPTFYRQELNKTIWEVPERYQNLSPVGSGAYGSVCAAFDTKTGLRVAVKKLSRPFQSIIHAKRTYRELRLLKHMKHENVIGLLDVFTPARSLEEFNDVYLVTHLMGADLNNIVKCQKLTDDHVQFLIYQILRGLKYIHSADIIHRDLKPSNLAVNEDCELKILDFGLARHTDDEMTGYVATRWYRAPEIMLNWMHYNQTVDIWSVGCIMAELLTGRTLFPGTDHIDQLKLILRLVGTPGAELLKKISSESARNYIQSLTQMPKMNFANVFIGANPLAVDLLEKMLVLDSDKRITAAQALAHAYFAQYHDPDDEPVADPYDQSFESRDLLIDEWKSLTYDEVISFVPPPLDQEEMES
Chain of Ribosomal protein S6 kinase alpha-4 (Homo sapiens) (O75676 whole entry, looked up, the tested form may be a part): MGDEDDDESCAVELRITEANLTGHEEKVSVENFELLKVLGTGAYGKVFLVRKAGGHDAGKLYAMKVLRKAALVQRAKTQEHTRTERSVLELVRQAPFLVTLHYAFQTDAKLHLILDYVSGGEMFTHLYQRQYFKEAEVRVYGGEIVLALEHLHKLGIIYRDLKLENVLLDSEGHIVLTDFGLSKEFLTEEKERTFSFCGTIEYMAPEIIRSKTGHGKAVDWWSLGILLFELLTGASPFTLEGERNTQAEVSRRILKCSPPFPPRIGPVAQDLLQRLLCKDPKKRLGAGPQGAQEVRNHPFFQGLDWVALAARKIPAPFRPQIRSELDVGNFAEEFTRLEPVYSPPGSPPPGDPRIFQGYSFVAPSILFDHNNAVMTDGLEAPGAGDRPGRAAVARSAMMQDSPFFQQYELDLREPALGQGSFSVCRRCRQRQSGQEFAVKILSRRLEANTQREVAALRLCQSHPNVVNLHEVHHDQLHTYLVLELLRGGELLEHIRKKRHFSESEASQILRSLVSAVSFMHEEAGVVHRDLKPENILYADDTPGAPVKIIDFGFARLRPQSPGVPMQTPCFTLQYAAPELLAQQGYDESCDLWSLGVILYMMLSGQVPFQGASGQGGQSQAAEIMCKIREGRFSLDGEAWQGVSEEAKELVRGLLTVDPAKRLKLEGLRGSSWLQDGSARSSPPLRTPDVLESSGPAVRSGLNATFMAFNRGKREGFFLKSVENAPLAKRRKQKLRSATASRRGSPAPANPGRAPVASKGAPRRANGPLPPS
Chain of Platelet-derived growth factor receptor alpha (Homo sapiens) (P16234 whole entry, the tested form may be a part): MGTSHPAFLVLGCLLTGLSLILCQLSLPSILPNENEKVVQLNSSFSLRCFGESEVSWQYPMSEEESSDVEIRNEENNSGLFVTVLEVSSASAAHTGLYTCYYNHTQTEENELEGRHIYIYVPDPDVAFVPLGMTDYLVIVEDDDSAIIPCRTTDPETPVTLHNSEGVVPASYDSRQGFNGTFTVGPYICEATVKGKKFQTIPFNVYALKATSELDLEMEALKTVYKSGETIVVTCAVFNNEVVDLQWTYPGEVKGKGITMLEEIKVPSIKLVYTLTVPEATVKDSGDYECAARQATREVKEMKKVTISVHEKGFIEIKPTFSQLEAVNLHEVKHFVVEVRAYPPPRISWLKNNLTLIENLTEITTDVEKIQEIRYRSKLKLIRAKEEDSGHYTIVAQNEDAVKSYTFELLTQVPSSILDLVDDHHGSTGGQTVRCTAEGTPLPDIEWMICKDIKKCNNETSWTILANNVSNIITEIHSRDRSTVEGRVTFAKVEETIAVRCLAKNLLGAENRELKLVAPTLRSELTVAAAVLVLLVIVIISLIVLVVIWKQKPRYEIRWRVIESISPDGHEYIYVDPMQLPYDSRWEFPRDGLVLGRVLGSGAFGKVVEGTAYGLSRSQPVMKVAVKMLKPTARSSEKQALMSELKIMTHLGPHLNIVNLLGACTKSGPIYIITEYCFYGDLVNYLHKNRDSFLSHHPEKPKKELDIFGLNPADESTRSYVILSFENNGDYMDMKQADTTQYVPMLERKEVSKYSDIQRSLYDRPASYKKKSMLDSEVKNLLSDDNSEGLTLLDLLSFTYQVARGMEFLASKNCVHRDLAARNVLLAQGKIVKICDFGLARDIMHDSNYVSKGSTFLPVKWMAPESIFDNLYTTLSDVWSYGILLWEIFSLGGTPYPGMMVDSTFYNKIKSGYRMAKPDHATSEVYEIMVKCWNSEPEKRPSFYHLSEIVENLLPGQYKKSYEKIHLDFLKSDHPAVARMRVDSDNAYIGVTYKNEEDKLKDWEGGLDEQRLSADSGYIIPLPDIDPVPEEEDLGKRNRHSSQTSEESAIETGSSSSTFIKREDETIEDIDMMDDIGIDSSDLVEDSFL
Chain of Proto-oncogene tyrosine-protein kinase receptor Ret (Homo sapiens), P07949 [V804L] (P07949 whole entry V804L, the tested form may be a part): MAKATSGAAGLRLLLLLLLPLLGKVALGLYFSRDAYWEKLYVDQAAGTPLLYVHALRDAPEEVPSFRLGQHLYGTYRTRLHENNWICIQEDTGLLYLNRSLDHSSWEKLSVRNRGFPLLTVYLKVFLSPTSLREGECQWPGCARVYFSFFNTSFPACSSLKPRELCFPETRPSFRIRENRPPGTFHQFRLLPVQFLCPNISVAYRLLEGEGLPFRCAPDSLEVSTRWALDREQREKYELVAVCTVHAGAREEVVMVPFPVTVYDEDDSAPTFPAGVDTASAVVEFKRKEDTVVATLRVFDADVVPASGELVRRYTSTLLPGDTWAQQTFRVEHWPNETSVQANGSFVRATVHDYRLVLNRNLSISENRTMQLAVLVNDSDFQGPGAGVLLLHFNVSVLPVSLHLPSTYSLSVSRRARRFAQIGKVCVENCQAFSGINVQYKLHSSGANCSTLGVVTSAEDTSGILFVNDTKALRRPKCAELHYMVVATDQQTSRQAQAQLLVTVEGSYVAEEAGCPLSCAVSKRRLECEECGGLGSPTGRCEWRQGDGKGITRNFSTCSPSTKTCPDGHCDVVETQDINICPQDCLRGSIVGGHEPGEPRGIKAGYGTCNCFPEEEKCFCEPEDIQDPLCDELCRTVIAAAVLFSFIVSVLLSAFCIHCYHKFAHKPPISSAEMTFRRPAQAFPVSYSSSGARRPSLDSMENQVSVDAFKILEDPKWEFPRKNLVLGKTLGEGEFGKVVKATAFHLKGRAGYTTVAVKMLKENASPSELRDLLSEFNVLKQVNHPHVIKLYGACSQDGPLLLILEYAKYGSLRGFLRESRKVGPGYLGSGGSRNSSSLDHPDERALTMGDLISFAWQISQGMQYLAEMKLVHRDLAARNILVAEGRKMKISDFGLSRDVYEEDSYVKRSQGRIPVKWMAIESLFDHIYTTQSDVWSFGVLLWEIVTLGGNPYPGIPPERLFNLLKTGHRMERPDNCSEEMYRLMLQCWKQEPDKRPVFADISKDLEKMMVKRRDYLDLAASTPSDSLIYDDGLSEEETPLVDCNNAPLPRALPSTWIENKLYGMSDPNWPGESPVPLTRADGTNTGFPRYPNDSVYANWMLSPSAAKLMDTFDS
Chain of Testis-specific serine/threonine-protein kinase 1 (Homo sapiens) (Q9BXA7 whole entry, the tested form may be a part): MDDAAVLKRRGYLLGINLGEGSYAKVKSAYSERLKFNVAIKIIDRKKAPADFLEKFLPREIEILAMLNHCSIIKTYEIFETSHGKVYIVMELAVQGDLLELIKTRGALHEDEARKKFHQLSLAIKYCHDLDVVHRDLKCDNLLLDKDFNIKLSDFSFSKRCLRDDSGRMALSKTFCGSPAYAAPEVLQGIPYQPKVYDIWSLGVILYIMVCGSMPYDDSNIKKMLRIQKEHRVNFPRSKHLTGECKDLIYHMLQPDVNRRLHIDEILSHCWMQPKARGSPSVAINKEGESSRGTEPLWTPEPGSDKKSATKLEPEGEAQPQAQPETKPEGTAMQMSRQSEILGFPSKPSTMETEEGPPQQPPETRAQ

On to `CC(C)Nc1sc(C(=O)c2ccc(Cl)s2)c(N)c1C#N`, for which the Activity in assay [1] is 83%; in assay [2] it was 73%; in assay [3] it was 91%; in assay [4], 97%; in assay [5], 100%; in assay [6], 100%. Also, the Activity in assay [7] was found to be 95%; in assay [8], 98%; in assay [9] it was 82%; in assay [10] it was 79%; in assay [11], 90%; in assay [12], 100%. The Activity in [13] was determined as 81%; in [14] it was 97%; in [15], 91%; in assay [16] it was 100%; in [17] it was 96%; in assay [18] it was 82%. The Activity in assay [19] is 100%; in assay [20], 77%; in [21] it was 83%; in assay [22], 86%; in assay [23] it was 100%; in assay [24] it was 70%.

These data come from ChEMBL document CHEMBL4330132, “5-Keto-3-cyano-2,4-diaminothiophenes as selective maternal embryonic leucine zipper kinase inhibitors” (Bioorg Med Chem Lett, 2019).
